Source: PMC9788418, “Design, Synthesis and Biological Evaluation of Syn and Anti-like Double Warhead Quinolinones Bearing Dihydroxy Naphthalene Moiety as Epidermal Growth Factor Receptor Inhibitors with Potential Apoptotic Antiproliferative Action” (Molecules, 2022)

Legend:
[1] = tested on: Bcl-2; assay: Bcl-2 inhibition assay; format: cell-based, human
Method: 4.2.5. Bcl-2inhibition assay
Mix all reagents thoroughly without foaming before use. Wash the microwells twice with approximately 300 μL Wash Buffer per well with thorough aspiration of microwell contents between washes. Take caution not to scratch the surface of the microwells. After the last wash, empty the wells and tap microwell strips on absorbent pad or paper towel to remove excess Wash Buffer. Use the microwell strips immediately after washing or place upside down on a wet absorbent paper for not […]
longer than 15 minutes. […] Add 100 μL of Sample Diluent in duplicate to all standard wells and to the blank wells. Prepare standard (1:2 dilution) in duplicate ranging from 32 ng/mL to 0.5 ng/mL. Add 100 μL of Sample Diluent, in duplicate, to the blank wells. Add 80 μL of Sample Diluent, in duplicate, to the sample wells. Add 20 μL of each Sample, in duplicate, to the designated wells. Add 50 μL of diluted biotin-conjugate to all wells, including the blank wells. Cover […]
Remove plate cover and empty the wells. […]
(§1) plate cover and incubate at room temperature, on a microplate shaker at 100 rpm if available, for 1 hour. Remove plate cover and empty the wells. Wash microwell strips 3 times as described in step 2.
(§2) Proceed to the next step. Pipette 100 μl of mixed TMB Substrate Solution to all wells, including the […]
available on a rotator set at 100 rpm. Avoid direct exposure to intense light. The point, at which the substrate reaction is stopped, is often determined by the ELISA reader. Many ELISA readers record absorbance only up to 2.0 O.D. Therefore, the color development within individual microwells must be watched by the person running the assay and the substrate reaction stopped before positive wells are no longer properly detectable. Stop the enzyme reaction by quickly pipetting 100 μL of Stop Solution into each well, including the blank wells. It is important that the Stop Solution is spread quickly and uniformly throughout the microwells to completely inactivate the enzyme. Results must be read immediately after the Stop Solution is added or within one hour if the microwell strips are stored at 2 - 8°C in the dark. Read absorbance of each microwell on a spectrophotometer using 450 nm as the primary wave length. […]

[2] = tested on: Cytochrome C; assay: Cytochrome C assay; format: cell-based, human
Method: The concentration of Cytochrome c in a cell is crucial for activating caspases and starting the intrinsic apoptosis process. […]
as §1, §2
available on a rotator set at 100 rpm. Avoid direct exposure to intense light. The point, at which the substrate reaction is stopped, is often determined by the ELISA reader. Many ELISA readers record absorbance only up to 2.0 O.D. Therefore, the color development within individual microwells must be watched by the person running the assay and the substrate reaction stopped before positive wells are no longer properly detectable. Stop the enzyme reaction by quickly pipetting 100 μL of Stop Solution into each well, including the blank wells. It is important that the Stop Solution is spread quickly and uniformly throughout the microwells to completely inactivate the enzyme. Results must be read immediately after the Stop Solution is added or within one hour if the microwell strips are stored at 2 - 8°C in the dark. Read absorbance of each microwell on a spectrophotometer using 450 nm as the primary wave length.
4.2.6. Cytochrome C assay […]
cytochrome C, and lysed with Cell Extraction Buffer. This lysate was diluted in Standard Diluent Buffer over the range of the assay and measured for cytochrome C content. (Cells are Plated in cells/well in a volume of 100µl complete growth medium + 100 µl of the tested compound + 50 µl of 1X biotin conjugated antibody+ 100 µl of 1X streptavidin-HRP+ 100 µL TMB substrate soln of per well in a 96-well plate for 24 hours before assay).
4.3. Statistical analysis
Computerized Prism 5 program was used to statistically analyzed data using one-way ANOVA test followed by Tukey’s as post ANOVA for multiple comparison at P ≤.05. Data were presented as […]

[3] = tested on: caspase-8; assay: Caspase-8 activation assay; format: cell-based, human
[4] = tested on: Bax; assay: Bax activation assay; format: cell-based, human; conditions: for Bax Conc: A-549
Method: 8, and lysed with Cell Extraction Buffer. This lysate was diluted in Standard Diluent Buffer over the range of the assay and measured for human active caspase-8 content. (cells are Plated in a density of 1.2 – 1.8 × 10,000 cells/well in a volume of 100µl complete growth medium + 100 ul of the tested compound per well in a 96-well plate for 24 hours before the enzyme assay for […].). […]
4.2.4. Bax activation assay
Bring all reagents, except the human Bax-α Standard, to room temperature for at least 30 minutes prior to opening. The human Bax-α Standard solution should not be left at room temperature for more than 10 minutes. All standards, controls and samples should be run in duplicate. Refer to the Assay Layout Sheet to determine the number of wells to be used and put any remaining wells with the desiccant back into the pouch and seal the ziploc. Store unused wells at 4 °C. Pipet 100 μL of Assay Buffer into the S0 (0 pg/mL standard) wells. Pipet 100 μL of Standards #1 through #6 into the appropriate wells. Pipet 100 μL of the Samples into the appropriate wells. Tap the plate gently to mix the contents. Seal the plate and incubate at room temperature on a plate shaker for 1 hour at ~500 rpm. Empty the contents of the wells and wash by adding 400 μL of wash solution to every well.
Repeat the wash 4 more times for a total of 5 washes. After the final wash, empty or aspirate the wells and firmly tap the plate on a lint free paper towel to remove any remaining wash buffer. Pipet 100 μL of yellow Antibody into each well, except the Blank. Seal the plate and incubate at room temperature on a plate shaker for 1 hour at ~500 […]
wells and firmly tap the plate on a lint free paper towel to remove any remaining wash buffer. Add […]
100 μL of blue Conjugate to each well, except the Blank. Seal the plate and incubate at room temperature on a plate shaker for 30 minutes at ~500 rpm. Empty the contents of the wells and wash by adding 400 μL of wash solution to every well. Repeat the wash 4 more times for a total of 5 washes. After the final wash, empty or aspirate the wells and firmly tap the plate on a lint free paper towel to remove any remaining wash buffer. Pipet 100 μL of Substrate Solution into each well.
Incubate for 30 minutes at room temperature on a plate shaker at ~500 rpm. Pipet 100 μL Stop Solution to each well. Blank the plate reader against the Blank wells, read the optical density at 450 nm. Calculate the average net Optical Density (OD) bound for each standard and sample by subtracting the average Blank OD from the average OD for each standard and sample. Using linear graph paper, plot the Average Net OD for each standard versus Bax concentration in each standard.
Approximate a straight line through the points. The concentration of Bax in the unknowns can be determined by interpolation. […]

[5] = tested on: caspase-3; assay: Caspase-3 activation assay
Method: record autophosphorylation level, EGFR kinase assay was carried out based on DELFIA/Time-
Resolved Fluorometry. The compounds were first dissolved in DMSO absolute, after dilution to
Each compound (10 µL) was incubated
with recombinant enzyme (10 µL, 5 ng for EGFR, 1:80 dilution in 100 mM HEPES) for 10 min at
25 °C, after the addition of 5X buffer (10 µL, containing 2 mM MnCl2, 100 µM Na3VO4, 20 mM HEPES and 1 mM DTT) and ATP-MgCl2 (20 µL, containing 0.1 mM ATP and 50 mM MgCl2) and
incubation for 1h. The negative and positive controls were included in each plate by the incubation
of enzyme either with or without ATP-MgCl2. The liquid was removed after incubation and the plates
were washed thrice using wash buffer. Europium-tagged antiphosphotyrosine antibody (75 µL, 400
ng) was added to each well followed by incubation of 1h and then washing of the plates using buffer.
The enhancement solution was added to each well and the signal was recorded at excitation and
The autophosphorylation percentage inhibition by compounds was calculated using the following equation:

[6] = tested on: caspase-9; assay: Caspase-9 level assay; format: cell-based, human
Method: The impact of compounds 4a and 4b on caspase-8 and caspase-9 was also assessed to clarify how compounds 4a and 4b induce apoptosis by activating the intrinsic or extrinsic route.

[7] = A-549, vs control untreated cells

Compound: COc1cccc2c1C(=O)c1c(O)c3c(c(O)c1C2=O)C[C@@](O)(C(=O)CO)C[C@@H]3O[C@H]1C[C@H](N)[C@H](O)[C@H](C)O1 [Doxorubicin, reference compound]
- Bcl-2 Conc ([1]; A-549): 1.98 ng/mL
- Bcl-2 Fold Reduction ([1]; A-549, vs control): 2.5
- Cytochrome C Conc ([2]; A-549): 0.60 ng/mL
- Cytochrome C Fold Change ([2]; A-549, vs control): 12
- Caspase-8 Conc [3]: 1.80 ng/mL
- Caspase-8 Fold Change ([3]; vs control cells): 9
- Bax Conc [4]: 276.20 pg/mL
- Bax Fold Change [4, 7]: 33
- Bax Conc ([4]; listed as doxorubicin): 276 pg/mL
- Caspase-3 Conc ([5]; A-549): 503.25 ± 4.50 pg/mL
- Caspase-3 Fold Change [5, 7]: 7.70
- Caspase-9 Conc [6]: 16.25 ng/mL
- Caspase-9 Fold Change ([6]; vs control cells): 17.00
